{"source": "patent US20100121049A1", "about": "“INDENOISOQUINOLINONE ANALOGS AND METHODS OF USE THEREOF” (INOTEK PHARMACEUTICALS CORPORATION, priority 2007, published 2010)", "note": "Counter-ions that a name gives are not always drawn.", "data": [{"target": "T1, PARP (Mus musculus, UniProt P11103)", "T1 construct": "PARP Activity in Cultured Macrophages, Using a Whole-Cell Based Assay; host or cells: murine RAW macrophages", "T1 sequence (P11103 whole entry)": "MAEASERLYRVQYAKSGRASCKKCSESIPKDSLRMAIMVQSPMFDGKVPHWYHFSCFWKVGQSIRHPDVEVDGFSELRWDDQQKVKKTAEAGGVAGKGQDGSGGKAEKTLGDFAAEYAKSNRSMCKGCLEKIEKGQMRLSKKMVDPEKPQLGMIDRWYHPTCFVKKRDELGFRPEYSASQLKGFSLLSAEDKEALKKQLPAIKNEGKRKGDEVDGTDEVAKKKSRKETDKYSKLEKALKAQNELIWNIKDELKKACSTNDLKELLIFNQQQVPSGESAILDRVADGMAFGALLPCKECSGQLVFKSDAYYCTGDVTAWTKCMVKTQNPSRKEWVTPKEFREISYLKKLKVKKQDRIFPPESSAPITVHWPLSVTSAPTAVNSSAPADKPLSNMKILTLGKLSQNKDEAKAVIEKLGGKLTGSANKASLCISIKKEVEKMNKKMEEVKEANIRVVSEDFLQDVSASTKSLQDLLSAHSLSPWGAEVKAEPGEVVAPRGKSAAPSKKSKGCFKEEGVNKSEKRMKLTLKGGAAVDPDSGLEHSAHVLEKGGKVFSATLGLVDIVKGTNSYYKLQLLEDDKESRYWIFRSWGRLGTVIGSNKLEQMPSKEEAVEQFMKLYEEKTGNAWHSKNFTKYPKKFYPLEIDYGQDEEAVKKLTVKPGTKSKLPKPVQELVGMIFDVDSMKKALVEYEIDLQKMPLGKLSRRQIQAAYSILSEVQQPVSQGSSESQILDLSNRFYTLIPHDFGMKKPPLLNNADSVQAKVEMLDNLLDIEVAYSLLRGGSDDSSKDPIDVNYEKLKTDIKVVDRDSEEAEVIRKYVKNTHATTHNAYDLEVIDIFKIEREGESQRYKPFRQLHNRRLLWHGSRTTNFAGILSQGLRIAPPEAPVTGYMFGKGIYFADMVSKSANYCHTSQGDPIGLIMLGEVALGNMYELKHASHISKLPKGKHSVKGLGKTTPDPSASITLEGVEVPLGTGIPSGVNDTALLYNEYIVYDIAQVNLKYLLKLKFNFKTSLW", "assay": "PARP activity in cultured macrophages, whole-cell based assay (3H-NAD+ incorporation after hydrogen peroxide)", "details": "murine RAW macrophages; compound 1 hour prior to hydrogen peroxide (0.5 mM) for 25 minutes; PARP activity by 3H-NAD+", "description": "Effect of Indenoisoquinolinone Analogs on PARP Activity in Cultured Macrophages, Using a Whole-Cell Based Assay\nThe murine RAW macrophages (ATCC, American Type Culture Collection, Manassas, Va.) were grown in RPMI […] (Invitrogen Life Technologies; Carlsbad, Calif.) medium supplemented with 10% heat-inactivated FBS, 2 mM L-glutamine, and 100 U/ml of penicillin and streptomycin. Cells, between passages 5 and 15, were seeded at a density of 250,000 cells/well in 12 well plates and allowed to grow 48 hours before use. Growth medium was changed on the day of use. Cells were treated with an Indenoisoquinolinone Analog diluted in a growth medium supplemented with 10% fetal bovine serum (FBS) for 1 hour prior to the addition of hydrogen peroxide (0.5 mM) for a further 25 minutes. For the measurement of PARP activity, media was removed and replaced with 0.5 ml of the assay buffer (56 mM HEPES-pH 7.5, 28 mM KCl, 28 mM NaCl, 2 mM MgCl2, 0.01% digitonin, and 0.5 μCi/m1 of ^3H-NAD^+) for 20 minutes. After aspirating the assay buffer, cells were lysed and transferred to eppendorf tubes containing 250 μl of 50% ice-cold trichloroacetic acid (TCA), which were then placed at 4° C. for 4 hours. Samples were centrifuged at 10,000 g for 10 minutes and supernatant removed. The pellets were washed twice with 500 μl of ice-cold 5% w/v TCA. The pellets were then solubilized in 250 μl of NaOH (0.1 M) containing 2% SDS overnight at 37° C. and the PARP activity was then determined by measuring the radioactivity incorporated using a Wallac scintillation counter. The solubilized protein (250 μl) was mixed with 5 ml of scintillation fluid (ScintiSafe Plus, Fisher Scientific) before being counted for 3 minutes. EC50 values were determined from a dose-response curve.", "units": {"EC50": "nM"}, "values": [{"smiles": "O=c1[nH]c2c(c3ccccc13)Cc1cc(CN3CCCCCC3)ccc1-2", "note": "[IIIb-22, 9-(1-Homopiperidinomethyl)-5,6-dihydro-5-oxo-11-H-indeno[1,2-c]isoquinoline]", "EC50": "> 100"}, {"smiles": "O=c1[nH]c2c(c3ccccc13)Cc1cc(CN3CCN(C4CCCC4)CC3)ccc1-2", "note": "[IIIb-9, 9-[1-(4-Cyclopentylpiperazino)methyl]-5,6-dihydro-5-oxo-11-H-indeno[1,2-c]isoquinoline dihydrochloride]", "EC50": 20}, {"smiles": "CCCCN1CCN(Cc2ccc3c(c2)Cc2c-3[nH]c(=O)c3ccccc23)CC1", "note": "[IIIb-2, 9-[1-(4-Butylpiperazino)methyl]-5,6-dihydro-5-oxo-11-H-indeno[1,2-c]isoquinoline]", "EC50": 25}, {"smiles": "CC(C)(O)CN1CCN(Cc2ccc3c(c2)Cc2c-3[nH]c(=O)c3ccccc23)CC1", "note": "[IIIb-18, 9-[4-(2-Hydroxy-2-methyl-propyl-piperazino)methyl]-5,6-dihydro-5-oxo-11-H-indeno[1,2-c]isoquinoline dihydrochloride]", "EC50": 75}, {"smiles": "O=C(C1CC1)N1CCN(Cc2ccc3c(c2)Cc2c-3[nH]c(=O)c3ccccc23)CC1", "note": "[IIb-170, 9-{1-[4-(Cyclopropylcarbonyl)piperazino]methyl}-5,6-dihydro-5-oxo-11-H-indeno[1,2-c]isoquinoline]", "EC50": 75}, {"smiles": "C=CCN1CCN(Cc2cccc3c2Cc2c-3[nH]c(=O)c3ccccc23)CC1", "note": "[IIa-1, 10-[1-(4-Allylpiperazino)methyl]-5,6-dihydro-5-oxo-11-H-indeno[1,2-c]isoquinoline]", "EC50": 20}, {"smiles": "O=C(CN1CCN(Cc2ccc3c(c2)Cc2c-3[nH]c(=O)c3ccccc23)CC1)N1CCCC1", "note": "[IIb-157, 9-{1-[4-(1-Pyrrolidinocarbonylmethyl)piperazino]methyl}-5,6-dihydro-5-oxo-11-H-indeno[1,2-c] isoquinoline]", "EC50": 75}, {"smiles": "O=c1[nH]c2c(c3ccccc13)Cc1c(CN3CCN(c4ncccn4)CC3)cccc1-2", "note": "[IIIa-8, 10-{1-[4-(2-Pyrimidyl)piperazino]methyl}-5,6-dihydro-5-oxo-11-H-indeno[1,2-c]isoquinoline]", "EC50": 75}, {"smiles": "O=c1[nH]c2c(c3ccccc13)Cc1c(CNC3(CO)CCCC3)cc(F)cc1-2", "note": "[Va-9, 8-fluoro-10-((1-(hydroxymethyl)cyclopentylamino)methyl)-6,11-dihydro-5H-indeno[1,2-c]isoquinolin-5-one]", "EC50": 3}, {"smiles": "O=c1[nH]c2c(c3ccc(F)cc13)Cc1c(CNC3CCCC3)cccc1-2", "note": "[Va-3, 10-((cyclopentylamino)methyl)-3-fluoro-6,11-dihydro-5H-indeno[1,2-c]isoquinolin-5-one]", "EC50": 9}, {"smiles": "O=c1[nH]c2c(c3ccccc13)Cc1c(CNC3(CO)CCCC3)cccc1-2", "note": "[IIa-27, 10-{N-[1-(Hydroxymethyl)cyclopentyl]aminomethyl}-5,6-dihydro-5-oxo-11-H-indeno[1,2-c]isoquinoline]", "EC50": "< 10"}, {"smiles": "N#CCCN1CCN(Cc2ccc3c(c2)Cc2c-3[nH]c(=O)c3ccccc23)CC1", "note": "[IIb-66, 9-{1-[4-(2-Cyanoethyl)piperazino]methyl}-5,6-dihydro-5-oxo-11-H-indeno[1,2-c]isoquinoline]", "EC50": 45}, {"smiles": "CCC(C)n1c2cc(CN3CCC4(CC3)OCCO4)ccc2c2[nH]c(=O)c3ccccc3c21", "note": "(centres unmarked) [IIb-23]", "EC50": 80}, {"smiles": "O=c1[nH]c2c(c3cccc(Cl)c13)Cc1c(CNC3CCCC3)cccc1-2", "note": "[Va-1, 4-chloro-10-((cyclopentylamino)methyl)-6,11-dihydro-5H-indeno[1,2-c]isoquinolin-5-one]", "EC50": "> 100"}, {"smiles": "O=c1[nH]c2c(c3ccc(F)cc13)Cc1c(CNC3(CO)CCCC3)cc(F)cc1-2", "note": "[Va-10, 3,8-difluoro-10-((1-(hydroxymethyl)cyclopentylamino)methyl)-6,11-dihydro-5H-indeno[1,2-c]isoquinolin-5-one]", "EC50": 3}, {"smiles": "CC(C)(C)OC(=O)N1CCN(Cc2ccc3c(c2)Cc2c-3[nH]c(=O)c3ccccc23)CC1", "note": "[IIIb-16, 9-[(4-tert-Butoxycarbonyl-piperazino)methyl]-5,6-dihydro-5-oxo-11-H-indeno[1,2-c]isoquinoline]", "EC50": "> 100"}, {"smiles": "CC(C)N1CCN(Cc2cccc3c2Cc2c-3[nH]c(=O)c3ccccc23)CC1", "note": "[IIIa-1, 10-[1-(4-iso-Propylpiperazino)methyl]-5,6-dihydro-5-oxo-11-H-indeno[1,2-c]isoquinoline]", "EC50": 45}, {"smiles": "O=c1[nH]c2c(c3ccccc13)Cc1c(CN3CCN(CC4CC4)CC3)cccc1-2", "note": "[IIIa-3, 10-[1-(4-Cyclopropylmethylpiperazino)methyl]-5,6-dihydro-5-oxo-11-H-indeno[1,2-c]isoquinoline]", "EC50": 20}, {"smiles": "O=c1[nH]c2c(c3ccccc13)Cc1cc(CN3CCC(F)(F)CC3)ccc1-2", "note": "[Methylsulfonate salt of IIIb-15, 9-[1-(4,4-Difluoropiperidino)methyl]-5,6-dihydro-5-oxo-11-H-indeno[1,2-c]isoquinoline methylsulfonate]", "EC50": 55}, {"smiles": "CC(C)(C)OC(=O)N1CCC(N(Cc2ccc3c(c2)Cc2c-3[nH]c(=O)c3ccccc23)C2CC2)CC1", "note": "[IIb-79, 9-{N-[4-(1-Boc-piperidyl)]-N-cyclopropylaminomethyl}-5,6-dihydro-5-oxo-11-H-indeno[1,2-c]isoquinoline]", "EC50": "> 60"}, {"smiles": "O=c1[nH]c2c(c3ccccc13)Cc1c(CN3CCC4(CC3)OCCO4)cccc1-2", "note": "[IIa-14, 10-[(4,4-Ethylenedioxy-piperidino)methyl]-5,6-dihydro-5-oxo-11-H-indeno[1,2-c]isoquinoline]", "EC50": 30}, {"smiles": "O=c1[nH]c2c(c3ccccc13)Cc1cc(CN3CCN(C4CCCCC4)CC3)ccc1-2", "note": "[Dihydrochloride salt of IIIb-14, 9-[1-(4-Cyclohexylpiperazino)methyl]-5,6-dihydro-5-oxo-11-H-indeno[1,2-c]isoquinoline dihydrochloride]", "EC50": 20}, {"smiles": "CCC(=O)N1CCCN(Cc2ccc3c(c2)Cc2c-3[nH]c(=O)c3ccccc23)CC1", "note": "[IIb-118, 9-[(4-Propionyl-homopiperazino)methyl]-5,6-dihydro-5-oxo-11-H-indeno[1,2-c]isoquinoline hydrochloride]", "EC50": 60}, {"smiles": "O=c1[nH]c2c(c3ccccc13)Cc1c(CNCCN3CCCC3)cccc1-2", "note": "[IIIa-5, 10-[N-(2-Pyrollidinoethyl)aminomethyl}-5,6-dihydro-5-oxo-11-H-indeno[1,2-c]isoquinoline]", "EC50": 40}, {"smiles": "CCOCCN1CCN(Cc2ccc3c(c2)Cc2c-3[nH]c(=O)c3ccccc23)CC1", "note": "[IIIb-10, 9-{1-[4-(2-Ethoxyethyl)piperazino]methyl}-5,6-dihydro-5-oxo-11-H-indeno[1,2-c]isoquinoline]", "EC50": 75}, {"smiles": "CN1CCCN(Cc2ccc3c(c2)Cc2c-3[nH]c(=O)c3ccccc23)CC1", "note": "[IIIb-13, 9-[1-(4-Methylhomopiperazino)methyl]-5,6-dihydro-5-oxo-11-H-indeno[1,2-c]isoquinoline]", "EC50": 25}, {"smiles": "CC(C)(C)OC(=O)N1CCC(NCc2ccc3c(c2)Cc2c-3[nH]c(=O)c3ccccc23)CC1", "note": "[IIb-92, 9-{N-[4-(1-Boc-piperidyl)]aminomethyl}-5,6-dihydro-5-oxo-11-H-indeno[1,2-c]isoquinoline]", "EC50": "> 60"}, {"smiles": "O=c1[nH]c2c(c3ccc(F)cc13)Cc1c(CNC3CCOCC3)cccc1-2", "note": "[Va-5, 3-fluoro-10-((tetrahydro-2H-pyran-4-ylamino)methyl)-6,11-dihydro-5H-indeno[1,2-c]isoquinolin-5-one]", "EC50": 5}, {"smiles": "O=c1[nH]c2c(c3ccccc13)Cc1c(CN3CC=CCC3)cccc1-2", "note": "[IIIa-12, 10-[(3,4-Dehydropiperidino)methyl]-5,6-dihydro-5-oxo-11-H-indeno[1,2-c]isoquinoline]", "EC50": 7}, {"smiles": "O=c1[nH]c2c(c3ccccc13)Cc1c(CNCCCO)cccc1-2", "note": "[IIIa-4, 10-[N-1-(3-Hydroxypropyl)aminomethyl]-5,6-dihydro-5-oxo-11-H-indeno[1,2-c]isoquinoline]", "EC50": 15}, {"smiles": "CCCCN1CCN(Cc2cccc3c2Cc2c-3[nH]c(=O)c3ccccc23)CC1", "note": "[IIIa-2, 10-[1-(4-Butylpiperazino)methyl]-5,6-dihydro-5-oxo-11-H-indeno[1,2-c]isoquinoline]", "EC50": 25}, {"smiles": "CCOC(CN1CCN(Cc2ccc3c(c2)Cc2c-3[nH]c(=O)c3ccccc23)CC1)OCC", "note": "[IIb-196, 9-{1-[4-(2,2-Diethoxyethyl)piperazino]methyl}-5,6-dihydro-5-oxo-11-H-indeno[1,2-c]isoquinoline]", "EC50": 75}, {"smiles": "O=c1[nH]c2c(c3ccccc13)Cc1c(CN3CC[C@H](F)C3)cccc1-2", "note": "[IIIa-11, 10-[S-(3-Fluoropyrrolidino)methyl]-5,6-dihydro-5-oxo-11-H-indeno[1,2-c]isoquinoline]", "EC50": 12}, {"smiles": "CN(CCN1CCOCC1)Cc1ccc2c(c1)Cc1c-2[nH]c(=O)c2ccccc12", "note": "[IIIb-19]", "EC50": 30}, {"smiles": "O=c1[nH]c2c(c3c(F)cccc13)Cc1c(CNC3CCCC3)cccc1-2", "note": "[Va-7, 10-((cyclopentylamino)methyl)-1-fluoro-6,11-dihydro-5H-indeno[1,2-c]isoquinolin-5-one]", "EC50": 5}]}]}
